Experimental data reported in patent US20050181042A1, “Composition for oral or rectal administration” (priority 2002, published 2005).

Experiment: Plasma gentamycin after oral administration to NZW rabbits
Type: in vivo
Settings: for Plasma concentration of gentamycin: n = 3
Description: NZW rabbits were used in all experiments and all tablet/capsules were administered orally. The animals were given four, five or six tablets/capsules followed by water until they had swallowed the tablets/capsules. The animals were deprived of food for about 18 hours before dosing. […] The blood samples were centrifuged for 10 min at approximately 2000×g to obtain plasma for determination of gentamycin by EMIT 2000 TDM assay on a Hitachi 704 Analyzer (Table 10).
The area under the curve (AUC) was calculated by the linear trapezoidal rule to the last blood concentration. Two different doses (5 or 10 mg/kg bodyweight) were used during the experiments. For comparison of the results of the different formulations the AUC was divided by the respective dose of gentamycin. The obtained plasma concentration for pure gentamycin was set to 1. The obtained plasma concentrations for gentamycin in the three different lipid formulations were then expressed as multiple factors of increasing bioabsorption.

Substance: Gentamycin sulphate [Gentamycin 1]
- Correlation factor (multiple of bioabsorption, pure gentamycin = 1) (dose-adjusted AUC relative to Gentamycin 1): 1
- Plasma concentration of gentamycin (oral, dose 10 mg/kg, 0 hrs): 0 microgram/mL
- Plasma concentration of gentamycin (oral, dose 10 mg/kg, 0.5 hrs): 0.01 microgram/mL
- Plasma concentration of gentamycin (oral, dose 10 mg/kg, 1 hr): 0.01 microgram/mL
- Plasma concentration of gentamycin (oral, dose 10 mg/kg, 2 hrs): 0.02 microgram/mL
- Plasma concentration of gentamycin (oral, dose 10 mg/kg, 4 hrs): 0.01 microgram/mL
- Plasma concentration of gentamycin (oral, dose 10 mg/kg, 6 hrs): 0.03 microgram/mL
- AUC (oral, dose 10 mg/kg, linear trapezoidal rule to last blood concentration (6 hrs)): 0.09
